Drawing on the Kinase Knowledgebase extract (Sharma et al. 2016), this text covers IC50 for 80 compounds.

The target of the assay is CDK2 (UniProt P24941). The assay can be described thus: Enzyme Assay.

Broadly, the IC50 is the midpoint of a concentration-inhibition curve. High values mean weaker potency in that assay, low ones greater potency in that assay.

In the case of `O=C(Cc1ccc(S(=O)(=O)N2CCOCC2)cc1)Nc1n[nH]c2ccc(N3CCCS3(=O)=O)cc12`, the IC50 was below 100 nM.
With `CCOc1ccc(CC(=O)Nc2n[nH]c3ccc(N4CCCS4(=O)=O)cc23)cc1S(=O)(=O)N1CCN(C)CC1` the figure was below 1000 nM; with `O=C(Nc1n[nH]c2ccc(N3CCCS3(=O)=O)cc12)C1(c2ccccc2)CCCC1`, below 100000 nM; with `O=C(CN1CCN(c2ccccc2)CC1)Nc1n[nH]c2ccc(N3CCCS3(=O)=O)cc12`, below 500 nM.
Under `O=C(Cc1ccc(Cn2ccnc2)cc1)Nc1n[nH]c2ccc(N3CCCS3(=O)=O)cc12` stands below 1000 nM.
With `O=C(CN1CCc2ccccc2C1)Nc1n[nH]c2ccc(N3CCCS3(=O)=O)cc12` the figure was below 1000 nM; with `CC(=O)Nc1n[nH]c2ccc(N3CCCS3(=O)=O)cc12`, above 100000 nM.
Regarding `Cc1ccc(CC(=O)Nc2n[nH]c3ccc(N4CCCS4(=O)=O)cc23)cc1`, the IC50 is below 50 nM.
As for `CCOc1ccc(CC(=O)Nc2n[nH]c3ccc(N4CCCS4(=O)=O)cc23)cc1`, the concentration for half-maximal inhibition (IC50) is below 50 nM.
Under `O=C(Cc1ccc(-c2ccsc2)cc1)Nc1n[nH]c2ccc(N3CCCS3(=O)=O)cc12` stands below 50 nM; under `O=S1(=O)CCCN1c1ccc2[nH]nc(NC(Cc3ccccc3)=NO)c2c1`, below 10000 nM; under `CC(=NO)Nc1n[nH]c2ccc(N3CCCS3(=O)=O)cc12`, below 100000 nM.
With `O=C(Nc1n[nH]c2ccc(N3CCCS3(=O)=O)cc12)C(c1ccccc1)C1CCCC1` (stereo not given), the half-maximal inhibitory concentration (IC50) is below 100000 nM.
With `O=C(Cc1ccc(-c2ccccc2)cc1)Nc1n[nH]c2ccc(N3CCCS3(=O)=O)cc12`, the half-inhibitory concentration (IC50) was below 50 nM.
With `O=C(Cc1ccc(-c2ccncc2)cc1)Nc1n[nH]c2ccc(N3CCCS3(=O)=O)cc12` the figure was below 50 nM; with `Cc1cccc(CC(=O)Nc2n[nH]c3ccc(N4CCCS4(=O)=O)cc23)c1`, below 50 nM.
In turn, `O=C(Cn1cnc2ccccc21)Nc1n[nH]c2ccc(N3CCCS3(=O)=O)cc12` yielded a 50% inhibitory concentration (IC50) below 50 nM.
With `COc1ccc(CC(=O)Nc2n[nH]c3ccc(N4CCCS4(=O)=O)cc23)cc1` the figure was below 100 nM.
Under `O=C(Cn1cnc(-c2ccc(Br)cc2)c1)Nc1n[nH]c2ccc(N3CCCS3(=O)=O)cc12` stands below 100 nM; under `O=C(Cc1ccc(Cl)cc1)Nc1n[nH]c2ccc(N3CCCS3(=O)=O)cc12`, below 50 nM; under `O=C(Cn1cnc(-c2ccccc2)c1)Nc1n[nH]c2ccc(N3CCCS3(=O)=O)cc12`, below 50 nM.
The compound `O=C(Cn1cnc(-c2ccc3ccccc3c2)c1)Nc1n[nH]c2ccc(N3CCCS3(=O)=O)cc12` registered a concentration for half-maximal inhibition (IC50) below 50 nM.
With `CCOc1cccc(CC(=O)Nc2n[nH]c3ccc(N4CCCS4(=O)=O)cc23)c1` the figure was below 50 nM.
With `CCOc1ccc(CC(=O)Nc2n[nH]c3ccc(N4CCCS4(=O)=O)cc23)cc1S(=O)(=O)N1CCOCC1` the figure was below 1000 nM; with `O=C(Cc1ccc([N+](=O)[O-])cc1)Nc1n[nH]c2ccc(N3CCCS3(=O)=O)cc12`, below 50 nM.
With `CCOc1ccc(CC(=O)Nc2n[nH]c3ccc(N4CCCS4(=O)=O)cc23)cc1Cl`, the IC50 was below 100 nM.
With `CCNc1nc(CC(=O)Nc2n[nH]c3ccc(N4CCCS4(=O)=O)cc23)cs1` the figure was below 500 nM; with `CCOCCOCCOc1ccc(CC(=O)Nc2n[nH]c3ccc(N4CCCS4(=O)=O)cc23)cc1`, below 100 nM; with `O=S1(=O)CCCN1c1ccc2[nH]nc(NC(=S)Cc3ccccc3)c2c1`, below 10000 nM.
On to `CSc1ccc(CC(=O)Nc2n[nH]c3ccc(N4CCCS4(=O)=O)cc23)cc1`, for which the IC50 was below 50 nM.
With `CS(=O)(=O)c1ccc(CC(=O)Nc2n[nH]c3ccc(N4CCCS4(=O)=O)cc23)cc1` the figure was below 50 nM.
With `CCOc1ccc(CC(=O)Nc2n[nH]c3ccc(N4CCCS4(=O)=O)cc23)cc1S(N)(=O)=O` the figure was below 1000 nM; with `CCOc1ccc(CC(=O)Nc2n[nH]c3ccc(N4CCCS4(=O)=O)cc23)cc1[N+](=O)[O-]`, below 50 nM; with `O=C(Cc1ccc(O)cc1)Nc1n[nH]c2ccc(N3CCCS3(=O)=O)cc12`, below 50 nM.
With `O=C(Cc1ccc(N2CCOCC2)cc1)Nc1n[nH]c2ccc(N3CCCS3(=O)=O)cc12` the figure was below 100 nM; with `O=C(CN1CCOCC1)Nc1n[nH]c2ccc(N3CCCS3(=O)=O)cc12`, below 10000 nM.
The compound `O=C(Cc1ccc(Cl)c(Cl)c1)Nc1n[nH]c2ccc(N3CCCS3(=O)=O)cc12` yielded a concentration for half-maximal inhibition (IC50) below 50 nM.
Under `CCOc1ccccc1N1CCN(CC(=O)Nc2n[nH]c3ccc(N4CCCS4(=O)=O)cc23)CC1` stands below 10000 nM; under `O=C(Cc1ccc(Oc2ccccc2)cc1)Nc1n[nH]c2ccc(N3CCCS3(=O)=O)cc12`, below 100 nM.
`COc1ccc(N2CCN(CC(=O)Nc3n[nH]c4ccc(N5CCCS5(=O)=O)cc34)CC2)cc1`: the IC50 was below 10000 nM.
`CCC(C(=O)Nc1n[nH]c2ccc(N3CCCS3(=O)=O)cc12)c1ccccc1` (stereo not given) registered an IC50 below 100000 nM.
With `O=C(Cc1cccc(Br)c1)Nc1n[nH]c2ccc(N3CCCS3(=O)=O)cc12` the figure was below 50 nM.
With `CC(=O)Nc1nc(CC(=O)Nc2n[nH]c3ccc(N4CCCS4(=O)=O)cc23)cs1` the figure was below 10000 nM; with `COc1cc(CC(=O)Nc2n[nH]c3ccc(N4CCCS4(=O)=O)cc23)cc(OC)c1`, below 50 nM.
Under `O=C(Cc1ccc(N(Cc2ccccc2)Cc2ccccc2)cc1)Nc1n[nH]c2ccc(N3CCCS3(=O)=O)cc12` stands below 500 nM; under `Nc1cccc(CC(=O)Nc2n[nH]c3ccc(N4CCCS4(=O)=O)cc23)c1`, below 50 nM; under `O=C(CN1CCCCC1)Nc1n[nH]c2ccc(N3CCCS3(=O)=O)cc12`, below 10000 nM.
`CCNc1cccc(CC(=O)Nc2n[nH]c3ccc(N4CCCS4(=O)=O)cc23)c1` had an IC50 below 500 nM.
Under `O=C(Cc1cccc([N+](=O)[O-])c1)Nc1n[nH]c2ccc(N3CCCS3(=O)=O)cc12` stands below 50 nM; under `CC(C)c1ccc(CC(=O)Nc2n[nH]c3ccc(N4CCCS4(=O)=O)cc23)cc1`, below 50 nM.
`CN1CCN(Cc2ccc(CC(=O)Nc3n[nH]c4ccc(N5CCCS5(=O)=O)cc34)cc2)CC1` showed an IC50 below 100 nM.
With `CCN(CC)c1cccc(CC(=O)Nc2n[nH]c3ccc(N4CCCS4(=O)=O)cc23)c1` the figure was below 500 nM.
Under `O=C(Cc1ccc(OCc2ccccc2)cc1)Nc1n[nH]c2ccc(N3CCCS3(=O)=O)cc12` stands below 100 nM; under `CCNc1ccc(CC(=O)Nc2n[nH]c3ccc(N4CCCS4(=O)=O)cc23)cc1`, below 50 nM; under `CNc1ccc(CC(=O)Nc2n[nH]c3ccc(N4CCCS4(=O)=O)cc23)cc1`, below 50 nM.
Under `CCN(CC)c1nc(CC(=O)Nc2n[nH]c3ccc(N4CCCS4(=O)=O)cc23)cs1` stands below 500 nM; under `O=C(Cc1cccc(Cl)c1)Nc1n[nH]c2ccc(N3CCCS3(=O)=O)cc12`, below 50 nM.
In the case of `CC(=O)c1ccc(N2CCN(CC(=O)Nc3n[nH]c4ccc(N5CCCS5(=O)=O)cc34)CC2)cc1`, the half-maximal inhibitory concentration (IC50) is below 10000 nM.
Under `O=C(Cc1ccc(CN2CCOCC2)cc1)Nc1n[nH]c2ccc(N3CCCS3(=O)=O)cc12` stands below 100 nM; under `CC(C)(C)OC(=O)Nc1nc(CC(=O)Nc2n[nH]c3ccc(N4CCCS4(=O)=O)cc23)cs1`, below 100 nM.
With `COCCOCCOCCOc1ccc(CC(=O)Nc2n[nH]c3ccc(N4CCCS4(=O)=O)cc23)cc1` the figure was below 100 nM; with `O=C(Cc1ccccc1)Nc1n[nH]c2ccc(N3CCCS3(=O)=O)cc12`, below 50 nM.
With `O=C(Cn1cnc(-c2ccc(-c3ccccc3)cc2)c1)Nc1n[nH]c2ccc(N3CCCS3(=O)=O)cc12` the figure was below 500 nM.
The compound `CN1CCN(S(=O)(=O)c2ccc(CC(=O)Nc3n[nH]c4ccc(N5CCCS5(=O)=O)cc34)cc2)CC1` had an IC50 below 1000 nM.
Under `Cc1ccccc1CC(=O)Nc1n[nH]c2ccc(N3CCCS3(=O)=O)cc12` stands below 100 nM.
With `NCCOc1ccc(CC(=O)Nc2n[nH]c3ccc(N4CCCS4(=O)=O)cc23)cc1` the figure was below 100 nM; with `O=C(Cc1ccc(F)cc1)Nc1n[nH]c2ccc(N3CCCS3(=O)=O)cc12`, below 50 nM.
Under `CN1CCN(CC(=O)Nc2n[nH]c3ccc(N4CCCS4(=O)=O)cc23)CC1` stands below 10000 nM; under `CCN(CC)c1ccc(CC(=O)Nc2n[nH]c3ccc(N4CCCS4(=O)=O)cc23)cc1`, below 50 nM; under `O=C(Cc1csc(NCc2ccc(OCc3ccccc3)cc2)n1)Nc1n[nH]c2ccc(N3CCCS3(=O)=O)cc12`, below 10000 nM.
`O=C(Cc1ccc(-c2ccco2)cc1)Nc1n[nH]c2ccc(N3CCCS3(=O)=O)cc12` showed a half-maximal inhibitory concentration (IC50) below 50 nM.
Turning to `Nc1nc(CC(=O)Nc2n[nH]c3ccc(N4CCCS4(=O)=O)cc23)cs1`, the IC50 is below 500 nM.
With `O=C(Cc1cccc2ccccc12)Nc1n[nH]c2ccc(N3CCCS3(=O)=O)cc12` the figure was below 50 nM.
Under `O=C(CCc1ccccc1)Nc1n[nH]c2ccc(N3CCCS3(=O)=O)cc12` stands below 1000 nM.
Under `O=C(Cc1ccc(Br)cc1)Nc1n[nH]c2ccc(N3CCCS3(=O)=O)cc12` stands below 50 nM; under `Nc1ccc(CC(=O)Nc2n[nH]c3ccc(N4CCCS4(=O)=O)cc23)cc1`, below 50 nM.
`O=C(Cc1ccc2ccccc2c1)Nc1n[nH]c2ccc(N3CCCS3(=O)=O)cc12`: the IC50 was below 50 nM.
Under `O=C(CN1CCN(c2ccc(Cl)cc2)CC1)Nc1n[nH]c2ccc(N3CCCS3(=O)=O)cc12` stands below 10000 nM; under `CC(=S)Nc1n[nH]c2ccc(N3CCCS3(=O)=O)cc12`, below 50000 nM.
Under `O=C(Cc1ccc2c(c1)OCO2)Nc1n[nH]c2ccc(N3CCCS3(=O)=O)cc12` stands below 50 nM.
